Oligonucleotides are written 5' to 3', each unit as a sugar letter and its base; * is a phosphorothioate linkage, no mark a phosphodiester; rarer units and linkages stand in square brackets, end groups in braces. Plain capitals give the bases only. k = constrained ethyl (cEt); [5mC] = 5-methylcytosine; d = 2'-deoxy (DNA)

In data set [1] the test system is AR mRNA. Put plainly: Antisense inhibition of human AR in HuVEC cells, single concentration (electroporation, qRT-PCR RTS3559). It is filed as cell-based. In short, it runs like this: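 HuVEC cells electroporated with antisense oligonucleotides at a single concentration. AR mRNA quantified by qRT-PCR using human primer-probe set RTS3559 and normalised to total RNA content by RIBOGREEN.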

Data set [2] deals with testosterone. Description: Serum testosterone levels in cynomolgus monkeys (ELISA). It is filed as in vivo. To be noted: cynomolgus monkey, 40 mg/kg subcutaneously, 40 mg/kg. The method, then:
Serum testosterone protein levels were measured in the plasma with an ELISA kit (Enzo Life Sciences), following the manufacturer's instructions.

The conditions of data set [3]: cynomolgus monkey, in vivo, sc, 40 mg/kg.
The conditions of data set [4]: cynomolgus monkey, in vivo, sc, 40 mg/kg. This is another data set of the same source.
Method: Prior to the study, the monkeys were kept in quarantine for a 30-day period, during which the animals were observed daily for general health. The monkeys were 2-4 years old and weighed between 2 and 4 kg. Thirteen groups of four randomly assigned male cynomolgus monkeys each were injected subcutaneously with ISIS oligonucleotide or PBS. PBS solution or ISIS oligonucleotides, at a dose of 40 mg/kg, were administered with a loading regimen consisting of four doses on the first week of the study (days 1, 3, 5, and 7), followed by a maintenance regimen consisting of once weekly administration starting on Day 14 (weeks 2 to 6). Subcutaneous injections were performed in clock-wise rotations at 4 sites on the back; one site per dose. The injection sites were delineated by tattoo, while sedated using ketamine, and were separated by a minimum of 3 cm.
To evaluate the effect of ISIS oligonucleotides on hepatic function, the monkeys were fasted overnight. Approximately, 1.5 mL of blood samples were collected on day 44 from all the study groups. Blood was collected in tubes without anticoagulant for serum separation. The tubes were kept at room temperature for a minimum of 90 min and then centrifuged at 3,000 rpm for 10 min. Levels of various liver function markers were measured using a Toshiba 120FR NEO chemistry analyzer (Toshiba Co., Japan).
Setting [5] is: Table 19, 500 nM oligonucleotide, electroporation, approximately 24 hours, relative to untreated control.
The mark [6] stands for this setting: Table 20, 500 nM oligonucleotide, electroporation, approximately 24 hours, relative to untreated control.
Where [7] appears, read: Table 21, 500 nM oligonucleotide, electroporation, approximately 24 hours, relative to untreated control.
Setting [8] is: Table 22, 500 nM oligonucleotide, electroporation, approximately 24 hours, relative to untreated control.
The mark [9] stands for this setting: Table 23, 500 nM oligonucleotide, electroporation, approximately 24 hours, relative to untreated control.
Setting [10] is: Table 24, 1,000 nM oligonucleotide, electroporation, approximately 24 hours, relative to untreated control.
Where [11] appears, read: Table 25, 1,000 nM oligonucleotide, electroporation, approximately 24 hours, relative to untreated control.
Where [12] appears, read: Table 27, 1,000 nM oligonucleotide, electroporation, approximately 24 hours, relative to untreated control.
[13] abbreviates: Table 28, 1,000 nM oligonucleotide, electroporation, approximately 24 hours, relative to untreated control.

For “549372 (kA*kA*kG*dT*dT*dG*dT*dA*dG*dT*dA*dG*dT*k[5mC]*kG*k[5mC]) [compound 549372]”, the “% inhibition” value in data set [1] (500 nM ASO, electroporation, ~24 h, Table 1) worked out at 92%; in data set [1] (500 nM ASO, ~24 h, Table 16), 47%; in data set [1] (500 nM ASO, ~24 h, Table 17) it was 40%; in data set [1] (500 nM ASO, ~24 h, Table 18) it was 26%; in data set [1] (1,000 nM ASO, ~24 h, Table 13), 64%; in data set [1] (1,000 nM ASO, ~24 h, Table 26), 58%. In addition, the “% inhibition” value in data set [1] (setting [5]) was determined as 39%; in data set [1] (setting [6]) it was 23%; in data set [1] (setting [7]), 37%; in data set [1] (setting [8]), 46%; in data set [1] (setting [9]), 25%; in data set [1] (setting [10]), 63%. In addition, the figures for the “% inhibition” value in data set [1] (setting [11]), in data set [1] (setting [12]) and in data set [1] (setting [13]) were 59%, 70% and 54%, respectively.

“549458 (kG*kT*kT*dG*dA*dT*dT*dT*dA*dA*dT*dG*dG*kT*kT*kG) [compound 549458]”: the “% inhibition” value in data set [1] (250 nM ASO, ~24 h, Table 7) was determined as 71%; in data set [1] (500 nM ASO, electroporation, ~24 h, Table 2), 95%; in data set [1] (500 nM ASO, ~24 h, Table 5) it was 94%; in data set [1] (500 nM ASO, ~24 h, Table 16), 60%; in data set [1] (500 nM ASO, ~24 h, Table 17), 46%; in data set [1] (500 nM ASO, ~24 h, Table 18), 48%. The “% inhibition” value in data set [1] (1,000 nM ASO, ~24 h, Table 13) was found to be 87%; in data set [1] (1,000 nM ASO, ~24 h, Table 26), 79%; in data set [1] (setting [5]), 50%; in data set [1] (setting [6]) it was 54%; in data set [1] (setting [7]), 47%; in data set [1] (setting [8]), 39%. Also, the “% inhibition” value in data set [1] (setting [9]) is 51%; in data set [1] (setting [10]) it was 88%; in data set [1] (setting [11]), 76%; in data set [1] (setting [12]) it was 76%; in data set [1] (setting [13]), 65%.

For “TGATTTAATGGTTGCA [ISIS 569236] (cEt/MOE gapmer chemistry, further chemistry not given here)”, the Serum testosterone level in data set [2] is 12.7 ng/mL. In data set [3], the “C3 (% of baseline)” value is reported as 103 % of baseline and the CRP was 2.6 mg/dL. In data set [4], this substance displayed an ALT of 35 IU/L, an AST of 45 IU/L and an Albumin of 4.1 g/dL.

In data set [2], “TTGATTTAATGGTTGC [ISIS 560131] (MOE and (S)-cEt gapmer chemistry, further chemistry not given here)” had a Serum testosterone level of 14.7 ng/mL. Besides, in data set [3], the “C3 (% of baseline)” value is listed as 100 % of baseline and the CRP was 1.7 mg/dL. In data set [4], this substance displayed an ALT of 68 IU/L, an AST of 87 IU/L and an Albumin of 4.0 g/dL.
